Measurements as given in patent US11634607B2, “Compositions for containers and other articles and methods of using same” (SWIMC LLC, priority 2011, dated 2023).

Tested on: MCF-7, clone WS8, cells
Assay: MCF-7 cell proliferation assay of estrogenic activity
Type: cell-based, human
Settings: logarithmic (base 10) Relative Proliferative Effect vs 17-beta estradiol; 'expected or measured' values, not told apart
Source text: The MCF-7 assay uses MCF-7, clone WS8, cells to measure whether and to what extent a substance induces cell proliferation via estrogen receptor (ER)-mediated pathways. The method is described in “Test Method Nomination: MCF-7 Cell Proliferation Assay of Estrogenic Activity” submitted for validation by CertiChem, Inc. to the National Toxicology Program Interagency Center for the Evaluation of Alternative Toxicological Methods (NICEATM) on Jan. 19, 2006 (available online at http://iccvam.niehs.nih.gov/methods/endocrine/endodocs/SubmDoc.pdf).
A brief summary of the method of the aforementioned MCF-7 assay is provided below. MCF-7, clone WS8, cells are maintained at 37° C. in RMPI (or Roswell Park Memorial Institute medium) containing Phenol Red (e.g., GIBCO Catalog Number 11875119) and supplemented with the indicated additives for routine culture. An aliquot of cells maintained at 37° C. are grown for 2 days in phenol-free media containing 5% charcoal stripped fetal bovine serum in a 25 cm^2 tissue culture flask. Using a robotic dispenser such as an epMotion 5070 unit, MCF-7 cells are then seeded at 400 cells per well in 0.2 ml of hormone-free culture medium in Corning 96-well plates. The cells are adapted for 3 days in the hormone-free culture medium prior to adding the chemical to be assayed for estrogenic activity. The media containing the test chemical is replaced daily for 6 days. At the end of the 7-day exposure to the test chemical, the media is removed, the wells are washed once with 0.2 ml of HBSS (Hanks' Balanced Salt Solution), and then assayed to quantify amounts of DNA per well using a micro-plate modification of the Burton diphenylamine (DPA) assay, which is used to calculate the level of cell proliferation.
RPE is the ratio between the EC50 of the test chemical and the EC50 of the control substance 17-beta estradiol times 100, where EC50 is “effective concentration 50%” or half-maximum stimulation concentration for cell proliferation measured as total DNA in the MCF-7 assay.

| Compound | Log RPE |
| --- | --- |
| C[C@]12CC[C@@H]3c4ccc(O)cc4CC[C@H]3[C@@H]1CC[C@@H]2O [17β-estradiol] | 2.00 |
| Oc1ccc(Cc2ccc(O)cc2)cc1 [Bisphenol F] | −2 |
| O=S(=O)(c1ccc(O)cc1)c1ccc(O)cc1 [Bisphenol S] | −2 |
